This is an account of results in ChEMBL document CHEMBL5725290, “IRE-1α inhibitors” (2017).

Each structure is given as a SMILES string.

For the assay, the target named is Serine/threonine-protein kinase/endoribonuclease IRE1 (Homo sapiens, UniProt O75460). Put plainly: IRE-1alpha Assay: A fusion protein comprising glutathione S transferase (GST) and human IRE-1α (GST-IRE-1α) obtained from a 500 ml baculovirus-infected insect cell culture can be used to measure IRE-1α activity in vitro. Five μl of a reaction mixture comprising 1× reaction buffer (5× reaction buffer is 100 mM Hepes pH 7.5, 250 mM KOAc, 2.5 mM MgCl2), 3 mM DTT, and 0.4% polyethylene glycol water is added to each well of 384 well plates. Twenty-five nanoliters of a 1 mM test compound solution are added to test wells. Three μl of a 128 ng/ml IRE-1α preparation are added to each test well and to positive control wells (final concentration 5.82 ng/well). Negative control wells contain only reaction mixture and test compound. After spinning the plates at 1200 rpm for 30 seconds, 3 μl of an IRE-1α human mini-XBP-1 mRNA stem-loop substrate 5'-[…]-3' (SEQ ID NO:1), labeled with the fluorescent dye Cy5 at the 5' end and Black Hole Quencher 2 (BH2) at the 3' end, are added to each well of a control plate. The plates are again spun at 1200 rpm for 30 seconds. Final concentrations for the assay are: 63 nM IRE-1α substrate, 5.82 ng IRE-1α protein, and 2.5 μM test compound. The plates are covered with lids and incubated for one hour at 30° C. The plates are then transferred to an ACQUEST™ microplate reader. Data is analyzed using data analysis software, and the percent activity of IRE-1α is calculated.
Serine/threonine-protein kinase/endoribonuclease IRE1, sequence (O75460 whole entry, the tested form may be a part): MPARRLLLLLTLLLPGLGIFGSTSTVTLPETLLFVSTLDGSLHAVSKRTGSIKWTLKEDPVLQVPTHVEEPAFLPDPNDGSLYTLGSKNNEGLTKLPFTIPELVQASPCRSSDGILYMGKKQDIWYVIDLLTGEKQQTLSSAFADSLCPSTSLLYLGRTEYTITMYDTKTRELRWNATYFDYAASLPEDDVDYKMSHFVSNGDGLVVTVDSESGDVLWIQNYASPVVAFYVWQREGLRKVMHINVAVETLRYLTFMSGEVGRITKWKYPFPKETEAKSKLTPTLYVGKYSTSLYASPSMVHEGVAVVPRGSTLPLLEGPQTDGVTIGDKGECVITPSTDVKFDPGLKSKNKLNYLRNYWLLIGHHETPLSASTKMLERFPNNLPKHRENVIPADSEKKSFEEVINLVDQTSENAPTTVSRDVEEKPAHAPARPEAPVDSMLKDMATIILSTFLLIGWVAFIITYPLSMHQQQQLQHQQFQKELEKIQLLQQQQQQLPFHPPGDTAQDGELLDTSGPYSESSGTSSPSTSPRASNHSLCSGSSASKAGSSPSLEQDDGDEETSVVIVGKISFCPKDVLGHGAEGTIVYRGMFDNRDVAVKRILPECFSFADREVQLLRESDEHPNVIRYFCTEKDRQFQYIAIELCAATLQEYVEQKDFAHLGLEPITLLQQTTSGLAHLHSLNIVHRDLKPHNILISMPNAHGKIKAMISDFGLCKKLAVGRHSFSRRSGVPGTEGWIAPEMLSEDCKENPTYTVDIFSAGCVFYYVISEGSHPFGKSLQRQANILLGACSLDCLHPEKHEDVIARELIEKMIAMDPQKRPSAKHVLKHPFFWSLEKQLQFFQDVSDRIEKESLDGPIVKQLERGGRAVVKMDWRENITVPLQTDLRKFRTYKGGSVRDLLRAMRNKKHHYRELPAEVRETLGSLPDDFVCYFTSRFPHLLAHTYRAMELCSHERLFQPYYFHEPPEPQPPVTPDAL
As to `Cc1c(Br)c(=O)oc2c(C=O)c(O)ccc12`, the EC50 was less than 10 µM.
Under `O=Cc1c(O)ccc2cc(-c3ccc(Br)cc3)c(=O)oc12` stands greater than 10 µM.
To `Cc1c(-c2ccc(C(=O)N3CCN(C)CC3)cc2)c(=O)oc2c(C=O)c(O)ccc12` belongs less than 10 µM; to `CCN(CC)CCc1c(C)c2ccc(O)c(C=O)c2oc1=O`, greater than 10 µM.
To `COc1cc2c(C)c(Br)c(=O)oc2c(C=O)c1O` belongs less than 10 µM; to `Cc1c(Br)c(=O)oc2c(C=O)c(O)c(F)cc12`, less than 10 µM.
As to `Cc1c(-c2cccc(C(=O)N3CCOCC3)c2)c(=O)oc2c(C=O)c(O)ccc12`, the EC50 is less than 10 µM.
Under `Cc1c(Cc2ccccc2)c(=O)oc2c(C=O)c(O)c(O)cc12` stands greater than 10 µM; under `Cc1c(-c2ccc(C(=O)N3CCCC3)cc2)c(=O)oc2c(C=O)c(O)ccc12`, less than 10 µM.
As for `Cc1c(-c2ccc(C(=O)N3CCC(C)CC3)cc2)c(=O)oc2c(C=O)c(O)ccc12`, the EC50 was less than 10 µM.
`Cc1c(-c2cccc(C(=O)N3CCCC3)c2)c(=O)oc2c(C=O)c(O)ccc12`: the EC50 is greater than 10 µM.
Take `Cc1cc(=O)oc2c(C=O)c(O)c(F)cc12`: the EC50 is less than 10 µM.
Take `Cc1c(-c2ccc(N3CCN(C)CC3)cc2)c(=O)oc2c(C=O)c(O)c(F)cc12`: the EC50 is less than 10 µM.
Under `COc1cc2c(C)c(-c3ccc(C(=O)N4CCOCC4)cc3)c(=O)oc2c(C=O)c1O` stands less than 10 µM; under `Cc1nc(N2CCc3c(ccc(O)c3C=O)C2)sc1C(=O)N1CCOCC1`, greater than 10 µM; under `O=Cc1c(O)ccc2nc(-c3cccc(C(=O)N4CCOCC4)c3)ccc12`, less than 10 µM.
For the molecule `CC1CCN(C(=O)c2ccc(-c3ccc4c(C=O)c(O)ccc4n3)cc2)CC1`, the EC50 is greater than 10 µM.
To `O=Cc1c(O)ccc2nc(-c3ccc(C(=O)N4CCCC4)cc3)ccc12` belongs less than 10 µM.
Under `O=Cc1c(O)ccc2nc(N3CCC(NC(=O)CN4CCOCC4)C3)ccc12` (stereo not given) stands less than 10 µM; under `CC(=O)NC1CCN(c2ccc3c(C=O)c(O)ccc3n2)C1` (stereo not given), less than 10 µM; under `CN1CCN(C2CCN(c3nc4ccc(O)c(C=O)c4s3)C2)CC1` (stereo not given), greater than 10 µM.
To `CC(C)N1CCN(c2nc3ccc(O)c(C=O)c3s2)CC1` belongs greater than 10 µM; to `CN1CCN(C(=O)c2ccc(-c3nc4ccc(O)c(C=O)c4s3)s2)CC1`, greater than 10 µM; to `CC1CCN(C(=O)c2ccc(-c3nc4ccc(O)c(C=O)c4s3)cc2)CC1`, greater than 10 µM.
Regarding `O=Cc1c(O)ccc2nc(-c3ccc(C(=O)O)cc3)[nH]c12`, the EC50 is greater than 10 µM.
To `COC(=O)c1ccc(-c2nc3ccc(O)c(C=O)c3[nH]2)cc1` belongs greater than 10 µM; to `O=Cc1c(O)ccc2nc(-c3ccc(C(=O)NCCN4CCOCC4)cc3)[nH]c12`, greater than 10 µM.
For the molecule `O=Cc1c(O)ccc2nc(-c3ccc(C(=O)N4CCOCC4)cc3)[nH]c12`, the EC50 was greater than 10 µM.
To `CN1CCN(C(=O)c2ccc(-c3nc4ccc(O)c(C=O)c4[nH]3)cc2)CC1` belongs greater than 10 µM; to `Cc1c(CCC(=O)N2CCOCC2)c(=O)oc2c(C=O)c(O)ccc12`, less than 10 µM.

As usually defined, the EC50 is the concentration that produces a half-maximal response.
